According to PubChem BioAssay AID248 (DTP/NCI, 2004):
“And” between values parts separate entries of the source, which are not always exact repeats. Equal entries are not always repeated. Toxic doses and inconclusive results are not listed. Rule as the data show it: active = T/C of 150% or more; inactive = T/C below 125%. Peptide text beside a SMILES is read from it.

Test system: L1210 leukemia ip in BDF1 mice, survival T/C
Assay: NCI In Vivo Anticancer Drug Screen. Data for tumor model L1210 Leukemia (intraperitoneal) in B6D2F1 (BDF1) mice
Conditions: endpoint: mean survival time, higher = longer survival
Outline: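 Each compound was tested against a transplantable tumor grown in mice. The endpoint was survival, with treated animals benchmarked against vehicle controls as a simple ratio.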

[1] = dose: 25.0 mg/kg/injection, schedule: Q01DX009 (ip), vehicle: Klucel (hydroxypropylcellulose) (HPC)
[2] = dose: 50.0 mg/kg/injection, schedule: Q01DX009 (ip), vehicle: Klucel (hydroxypropylcellulose) (HPC)
[3] = dose: 100.0 mg/kg/injection, schedule: Q01DX001 (ip), vehicle: Klucel (hydroxypropylcellulose) (HPC)
[4] = dose: 100.0 mg/kg/injection, schedule: Q04DX003 (ip), vehicle: Klucel (hydroxypropylcellulose) (HPC)
[5] = dose: 200.0 mg/kg/injection, schedule: Q01DX001 (ip), vehicle: Klucel (hydroxypropylcellulose) (HPC)
[6] = dose: 400.0 mg/kg/injection, schedule: Q01DX001 (ip), vehicle: Klucel (hydroxypropylcellulose) (HPC)
[7] = dose: 100.0 mg/kg/injection, schedule: Q04DX003 (ip), vehicle: saline

Measured: T/C

O=C(CCCN1CCC(O)(c2cccc(C(F)(F)F)c2)CC1)c1ccc(F)cc1
inactive: dose: 0.04 mg/kg/injection, schedule: Q03HX024 (ip), vehicle: Klucel (hydroxypropylcellulose) (HPC) 102 % of control | dose: 0.09 mg/kg/injection, schedule: Q03HX024 (ip), vehicle: Klucel (hydroxypropylcellulose) (HPC) 107 % of control | dose: 0.19 mg/kg/injection, schedule: Q03HX024 (ip), vehicle: Klucel (hydroxypropylcellulose) (HPC) 105 % of control | dose: 0.39 mg/kg/injection, schedule: Q03HX024 (ip), vehicle: Klucel (hydroxypropylcellulose) (HPC) 107 % of control | dose: 0.78 mg/kg/injection, schedule: Q03HX004 (ip), vehicle: Klucel (hydroxypropylcellulose) (HPC) 96 % of control | dose: 0.78 mg/kg/injection, schedule: Q03HX024 (ip), vehicle: Klucel (hydroxypropylcellulose) (HPC) 107 % of control | dose: 1.56 mg/kg/injection, schedule: Q01DX009 (ip), vehicle: Klucel (hydroxypropylcellulose) (HPC) 111 % of control | dose: 1.56 mg/kg/injection, schedule: Q03HX004 (ip), vehicle: Klucel (hydroxypropylcellulose) (HPC) 91 % of control | dose: 1.56 mg/kg/injection, schedule: Q03HX024 (ip), vehicle: Klucel (hydroxypropylcellulose) (HPC) 97 % of control | dose: 2.0 mg/kg/injection, schedule: Q01DX009 (ip), vehicle: Klucel (hydroxypropylcellulose) (HPC) 100 % of control | dose: 3.12 mg/kg/injection, schedule: Q01DX009 (ip), vehicle: Klucel (hydroxypropylcellulose) (HPC) 107 % of control and 122 % of control | dose: 3.12 mg/kg/injection, schedule: Q03HX024 (ip), vehicle: Klucel (hydroxypropylcellulose) (HPC) 100 % of control and 86 % of control | dose: 3.12 mg/kg/injection, schedule: Q04DX003 (ip), vehicle: Klucel (hydroxypropylcellulose) (HPC) 91 % of control and 101 % of control | dose: 4.0 mg/kg/injection, schedule: Q01DX009 (ip), vehicle: Klucel (hydroxypropylcellulose) (HPC) 92 % of control | dose: 6.25 mg/kg/injection, schedule: Q01DX001 (ip), vehicle: Klucel (hydroxypropylcellulose) (HPC) 106 % of control | dose: 6.25 mg/kg/injection, schedule: Q01DX009 (ip), vehicle: Klucel (hydroxypropylcellulose) (HPC) 110 % of control | dose: 6.25 mg/kg/injection, schedule: Q04DX003 (ip), vehicle: Klucel (hydroxypropylcellulose) (HPC) 100 % of control and 102 % of control and 108 % of control | dose: 12.5 mg/kg/injection, schedule: Q01DX001 (ip), vehicle: Klucel (hydroxypropylcellulose) (HPC) 106 % of control | dose: 12.5 mg/kg/injection, schedule: Q01DX009 (ip), vehicle: Klucel (hydroxypropylcellulose) (HPC) 121 % of control | dose: 12.5 mg/kg/injection, schedule: Q04DX003 (ip), vehicle: Klucel (hydroxypropylcellulose) (HPC) 94 % of control and 103 % of control | dose: 18.75 mg/kg/injection, schedule: Q01DX001 (ip), vehicle: Klucel (hydroxypropylcellulose) (HPC) 91 % of control | dose: 25.0 mg/kg/injection, schedule: Q01DX001 (ip), vehicle: Klucel (hydroxypropylcellulose) (HPC) 104 % of control and 119 % of control and 123 % of control | [1] 91 % of control | dose: 25.0 mg/kg/injection, schedule: Q04DX003 (ip), vehicle: Klucel (hydroxypropylcellulose) (HPC) 107 % of control and 117 % of control | dose: 37.5 mg/kg/injection, schedule: Q01DX001 (ip), vehicle: Klucel (hydroxypropylcellulose) (HPC) 103 % of control | dose: 50.0 mg/kg/injection, schedule: Q01DX001 (ip), vehicle: Klucel (hydroxypropylcellulose) (HPC) 123 % of control | [2] 92 % of control | dose: 50.0 mg/kg/injection, schedule: Q04DX003 (ip), vehicle: Klucel (hydroxypropylcellulose) (HPC) 97 % of control and 116 % of control | dose: 75.0 mg/kg/injection, schedule: Q01DX001 (ip), vehicle: Klucel (hydroxypropylcellulose) (HPC) 91 % of control | [3] 110 % of control and 115 % of control and 121 % of control | [4] 116 % of control | dose: 150.0 mg/kg/injection, schedule: Q01DX001 (ip), vehicle: Klucel (hydroxypropylcellulose) (HPC) 100 % of control

Oc1ccc(-c2nc3ccccc3s2)cc1
inactive: [3] 105 % of control | [5] 113 % of control | [6] 111 % of control

O=C(OCCO)c1ccccc1
inactive: dose: 100.0 mg/kg/injection, schedule: Q01DX009 (ip), vehicle: saline with Tween-80 97 % of control | [7] 106 % of control | dose: 200.0 mg/kg/injection, schedule: Q01DX009 (ip), vehicle: saline with Tween-80 97 % of control | dose: 200.0 mg/kg/injection, schedule: Q04DX003 (ip), vehicle: saline 95 % of control | dose: 400.0 mg/kg/injection, schedule: Q01DX009 (ip), vehicle: saline with Tween-80 95 % of control | dose: 400.0 mg/kg/injection, schedule: Q04DX003 (ip), vehicle: saline 97 % of control

c1ccc([Si](c2ccccc2)(c2ccccc2)c2ccc(-c3ccc([Si](c4ccccc4)(c4ccccc4)c4ccccc4)cc3)cc2)cc1
inactive: dose: 200.0 mg/kg/injection, schedule: Q01DX001 (ip), vehicle: saline with Tween-80 90 % of control | dose: 400.0 mg/kg/injection, schedule: Q01DX001 (ip), vehicle: saline with Tween-80 88 % of control

CCn1cc(C(=O)O)c(=O)c2cccc(OC)c21
inactive: dose: 50.0 mg/kg/injection, schedule: Q04DX002 (ip), vehicle: saline 86 % of control | dose: 100.0 mg/kg/injection, schedule: Q04DX002 (ip), vehicle: saline 115 % of control | dose: 200.0 mg/kg/injection, schedule: Q04DX002 (ip), vehicle: saline 100 % of control

CC(=O)NC(CO)C(=O)NCC(=O)NC(CCCN=C(N)N)C(N)=O (stereo not drawn) (Ac-Ser-Gly-Arg-NH2; configuration not given here)
inactive: dose: 25.0 mg/kg/injection, schedule: Q04DX002 (ip), vehicle: Klucel (hydroxypropylcellulose) (HPC) 100 % of control | dose: 50.0 mg/kg/injection, schedule: Q04DX002 (ip), vehicle: Klucel (hydroxypropylcellulose) (HPC) 100 % of control | dose: 100.0 mg/kg/injection, schedule: Q04DX002 (ip), vehicle: Klucel (hydroxypropylcellulose) (HPC) 100 % of control

C1CCC(=C(C2CCCC2)C2CCCC2)C1
inactive: dose: 75.0 mg/kg/injection, schedule: Q04DX002 (ip), vehicle: saline with Tween-80 105 % of control | dose: 150.0 mg/kg/injection, schedule: Q04DX002 (ip), vehicle: saline with Tween-80 99 % of control | dose: 300.0 mg/kg/injection, schedule: Q04DX002 (ip), vehicle: saline with Tween-80 99 % of control

Cc1n[nH]c(=S)[nH]c1=O
inactive: dose: 50.0 mg/kg/injection, schedule: Q01DX001 (ip), vehicle: saline 100 % of control | dose: 100.0 mg/kg/injection, schedule: Q01DX001 (ip), vehicle: saline 100 % of control | dose: 200.0 mg/kg/injection, schedule: Q01DX001 (ip), vehicle: saline 100 % of control | dose: 400.0 mg/kg/injection, schedule: Q01DX001 (ip), vehicle: saline 94 % of control

CCCCCCCCCCCCCC(=O)[O][Sn]([CH2]CCC)([CH2]CCC)[O]C(=O)CCCCCCCCCCCCC
inactive: dose: 0.78 mg/kg/injection, schedule: Q04DX003 (ip), vehicle: other 95 % of control | dose: 1.56 mg/kg/injection, schedule: Q04DX003 (ip), vehicle: other 98 % of control | dose: 3.13 mg/kg/injection, schedule: Q04DX003 (ip), vehicle: other 96 % of control | dose: 6.25 mg/kg/injection, schedule: Q04DX003 (ip), vehicle: other 109 % of control | dose: 12.5 mg/kg/injection, schedule: Q04DX003 (ip), vehicle: other 101 % of control

CN(CCC[N+](C)(C)C)C(=O)C(c1ccccc1)c1ccccc1
inactive: [7] 100 % of control

O=C(Nc1ccccc1F)Nc1ccccc1Cl
inactive: [1] 95 % of control | [2] 104 % of control | dose: 100.0 mg/kg/injection, schedule: Q01DX009 (ip), vehicle: Klucel (hydroxypropylcellulose) (HPC) 96 % of control | [4] 87 % of control | dose: 200.0 mg/kg/injection, schedule: Q01DX009 (ip), vehicle: Klucel (hydroxypropylcellulose) (HPC) 93 % of control and 92 % of control | dose: 200.0 mg/kg/injection, schedule: Q04DX003 (ip), vehicle: Klucel (hydroxypropylcellulose) (HPC) 89 % of control | dose: 400.0 mg/kg/injection, schedule: Q01DX009 (ip), vehicle: Klucel (hydroxypropylcellulose) (HPC) 95 % of control and 91 % of control

O=C(C=Nc1ccc([N+](=O)[O-])cc1)c1c2ccccc2cc2ccccc12
inactive: [3] 107 % of control | [5] 102 % of control | [6] 106 % of control

CC1(C)C(C)(C)C1(Cl)Cl
inactive: dose: 100.0 mg/kg/injection, schedule: Q01DX009 (ip), vehicle: saline 100 % of control | dose: 100.0 mg/kg/injection, schedule: Q04DX003 (sc), vehicle: olive oil, sesame oil, peanut oil 112 % of control | dose: 200.0 mg/kg/injection, schedule: Q01DX009 (ip), vehicle: saline 100 % of control | dose: 200.0 mg/kg/injection, schedule: Q04DX003 (sc), vehicle: olive oil, sesame oil, peanut oil 96 % of control | dose: 400.0 mg/kg/injection, schedule: Q01DX009 (ip), vehicle: saline 100 % of control | dose: 400.0 mg/kg/injection, schedule: Q04DX003 (sc), vehicle: olive oil, sesame oil, peanut oil 107 % of control
